Assay [1] addresses T1, Recombinant His-tagged NAMPT (Homo sapiens, UniProt P43490).
T1 construct: His; host or cells: E. coli
Put plainly: Biochemical inhibition assay: NAMPT enzymatic reaction, NMN quantified by mass spectrometry. The following applies: 33 nM NAMPT, 1 μM NAM, 100 μM PRPP, 30 minutes at room temperature, read-out: Biochem IC50. In a few lines:
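Reaction 30 min at room temperature with 1 μM NAM, 100 μM PRPP, 2.5 mM ATP (final), quenched with formic acid. NMN quantified by RapidFire electrospray MS, normalized to L-cystathionine; IC50 from percent inhibition versus DMSO.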

A further assay has as its system A2780 cells. Put plainly: In-vitro cell proliferation assay (SRB, 72 hours). Type of assay: cell-based. The following applies: sulforhodamine B (SRB) assay. In short, it runs like this: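 Viable cells measured by TCA fixation and SRB staining, absorbance 570 nm; % inhibition vs DMSO control after media-only background subtraction, interpolated between two bracketing concentrations.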
A general note: Sulforhodamine B stains cellular protein and so reports cell mass.

Like-named read-outs stand apart in the source and are kept apart here.

T1 sequence (P43490 whole entry): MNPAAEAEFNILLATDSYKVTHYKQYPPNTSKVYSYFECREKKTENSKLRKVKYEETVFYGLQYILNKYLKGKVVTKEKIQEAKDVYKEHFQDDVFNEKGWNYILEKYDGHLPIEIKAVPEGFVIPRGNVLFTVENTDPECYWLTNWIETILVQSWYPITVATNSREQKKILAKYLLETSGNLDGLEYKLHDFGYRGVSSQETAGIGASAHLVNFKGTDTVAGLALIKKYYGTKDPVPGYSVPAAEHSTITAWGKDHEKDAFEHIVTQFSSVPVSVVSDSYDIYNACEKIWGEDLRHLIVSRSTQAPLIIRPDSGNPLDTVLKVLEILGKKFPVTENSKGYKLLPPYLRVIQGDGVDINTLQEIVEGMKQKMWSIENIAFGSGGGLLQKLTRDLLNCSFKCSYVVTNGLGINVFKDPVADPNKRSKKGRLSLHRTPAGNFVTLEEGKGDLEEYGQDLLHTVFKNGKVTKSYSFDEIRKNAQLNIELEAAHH

Broadly, the IC50 is the point on the concentration scale where inhibition reaches its midpoint. For the molecule `O=C(NCCCCC1CCN(C(=O)c2ccc(OC(F)F)cc2)CC1)c1cc2ccncc2s1` [N-[4-(1-{[4-(difluoromethoxy)phenyl]carbonyl}piperidin-4-yl)butyl]thieno[2,3-c]pyridine-2-carboxamide], the IC50 in assay [1] (2.5 mM ATP) is 0.0774 µM; in the assay on A2780 cells (Homo sapiens) it was 0.1 to 1 µM.

On to `CC(C)Oc1ccc(C(=O)N2CCC(CCCCNC(=O)c3cc4ccncc4s3)CC2)cc1` [N-[4-(1-{[4-(propan-2-yloxy)phenyl]carbonyl}piperidin-4-yl)butyl]thieno[2,3-c]pyridine-2-carboxamide], for which the half-maximal inhibitory concentration (IC50) in assay [1] (2.5 mM ATP) is 0.04 µM; in the assay with A2780 cells (Homo sapiens) it was 0.1 to 1 µM.

Consider `O=C(NCCCCC1CCN(C(=O)c2ccc(C(F)(F)F)cc2)CC1)c1cc2cnccc2[nH]1` [N-[4-(1-{[4-(trifluoromethyl)phenyl]carbonyl}piperidin-4-yl)butyl]-1H-pyrrolo[3,2-c]pyridine-2-carboxamide], for which the IC50 in assay [1] (2.5 mM ATP) was determined as 0.164 µM; in the assay with A2780 cells (Homo sapiens), 0.0381 µM.

With `O=C(NCCCCC1CCN(C(=O)c2cccc(F)c2F)CC1)c1cc2ccncc2s1` [N-(4-{1-[(2,3-difluorophenyl)carbonyl]piperidin-4-yl}butyl)thieno[2,3-c]pyridine-2-carboxamide], the IC50 in assay [1] (2.5 mM ATP) was found to be 0.0068 µM; in the assay with A2780 cells (Homo sapiens), 0.0045 µM.

Take `COc1ncc(Cl)cc1C(=O)N1CCC(CCCCNC(=O)c2ccc3nccn3c2)CC1` [N-(4-{1-[(5-chloro-2-methoxypyridin-3-yl)carbonyl]piperidin-4-yl}butyl)imidazo[1,2-a]pyridine-6-carboxamide]: the figures for the IC50 (in assay [1] (2.5 mM ATP); with A2780 cells (Homo sapiens)) were 0.0123 µM and 0.0033 µM, respectively.

`O=C(NCCCCN1CCN(C(=O)c2ccccc2)CC1)c1cc2cnccc2[nH]1` [N-[4-(4-benzoylpiperazin-1-yl)butyl]-1H-pyrrolo[3,2-c]pyridine-2-carboxamide]: the values for the IC50 (in assay [1] (2.5 mM ATP); in the assay with A2780 cells (Homo sapiens)) were 0.016 µM and 0.0947 µM, respectively.

Take `O=C(NCCCCC1CCN(C(=O)c2csc(-c3ccccc3)n2)CC1)c1cc2ccncc2s1` [N-(4-{1-[(2-phenyl-1,3-thiazol-4-yl)carbonyl]piperidin-4-yl}butyl)thieno[2,3-c]pyridine-2-carboxamide]: the IC50 in assay [1] (2.5 mM ATP) was determined as 0.0131 µM; in the assay with A2780 cells (Homo sapiens) it was 0.0762 µM.

For the molecule `O=C(NCCCCC1CCN(C(=O)c2ccccc2F)CC1)c1cc2ccncc2s1` [N-(4-{1-[(2-fluorophenyl)carbonyl]piperidin-4-yl}butyl)thieno[2,3-c]pyridine-2-carboxamide], the results for the IC50 (in assay [1] (2.5 mM ATP); with A2780 cells (Homo sapiens)) were 0.0088 µM and 0.0006 µM, respectively.

For `CCOc1ncccc1C(=O)N1CCC(CCCCNC(=O)c2cc3cnccc3[nH]2)CC1` [N-(4-{1-[(2-ethoxypyridin-3-yl)carbonyl]piperidin-4-yl}butyl)-1H-pyrrolo[3,2-c]pyridine-2-carboxamide], the IC50 in assay [1] (2.5 mM ATP) was 0.0206 µM; with A2780 cells (Homo sapiens), 0.0006 µM.

In the case of `O=C(NCCCCC1CCN(C(=O)c2ccoc2)CC1)c1ccc2nccn2c1` [N-(4-{1-[(furan-3-yl)carbonyl]piperidin-4-yl}butyl)imidazo[1,2-a]pyridine-6-carboxamide], the IC50 in assay [1] (2.5 mM ATP) was found to be 0.0062 µM; with A2780 cells (Homo sapiens), 0.0256 µM.

Regarding `Cc1nc(CC(=O)N2CCC(CCCCNC(=O)c3cc4ccncc4s3)CC2)cs1` [N-(4-{1-[2-(2-methyl-1,3-thiazol-4-yl)acetyl]piperidin-4-yl}butyl)thieno[2,3-c]pyridine-2-carboxamide], the IC50 came to 0.0135 µM in assay [1] (2.5 mM ATP) and 0.0282 µM in the assay on A2780 cells (Homo sapiens).

Consider `O=C(NCCCCC1CCN(C(=O)c2cccnc2)CC1)c1ccc2nccn2c1` [N-(4-{1-[(pyridin-3-yl)carbonyl]piperidin-4-yl}butyl)imidazo[1,2-a]pyridine-6-carboxamide], for which the IC50 is 0.0127 µM in assay [1] (2.5 mM ATP) and 0.0274 µM in the assay on A2780 cells (Homo sapiens).

Regarding `O=C(NCCCCC1CCN(C(=O)c2csc(C(F)(F)F)n2)CC1)c1ccc2nccn2c1` [N-[4-(1-{[2-(trifluoromethyl)-1,3-thiazol-4-yl]carbonyl}piperidin-4-yl)butyl]imidazo[1,2-a]pyridine-6-carboxamide], the IC50 in assay [1] (2.5 mM ATP) is 0.0743 µM; in the assay on A2780 cells (Homo sapiens), 0.074 µM.

For the molecule `O=C(NCCCCC1CCN(C(=O)c2ccc(Cl)c(Cl)c2)CC1)c1ccc2nccn2c1` [N-(4-{1-[(3,4-dichlorophenyl)carbonyl]piperidin-4-yl}butyl)imidazo[1,2-a]pyridine-6-carboxamide], the values for the IC50 (in assay [1] (2.5 mM ATP); in the assay on A2780 cells (Homo sapiens)) were 0.049 µM and 0.1 to 1 µM, respectively.

Consider `O=C(NCCCCC1CCN(S(=O)(=O)c2ccccc2OC(F)(F)F)CC1)c1cc2cnccc2[nH]1` [N-[4-(1-{[2-(trifluoromethoxy)benzene]sulfonyl}piperidin-4-yl)butyl]-1H-pyrrolo[3,2-c]pyridine-2-carboxamide], for which the figures for the IC50 (in assay [1] ([…] ATP); in the assay with A2780 cells) were 0.0226 µM and 0.0033 µM, respectively.

Take `O=C(NCCCCC1CCN(C(=O)c2cnccc2C(F)(F)F)CC1)c1cc2ccncc2s1` [N-[4-(1-{[4-(trifluoromethyl)pyridin-3-yl]carbonyl}piperidin-4-yl)butyl]thieno[2,3-c]pyridine-2-carboxamide]: the IC50 in assay [1] (2.5 mM ATP) is 0.0099 µM; in the assay with A2780 cells (Homo sapiens), 0.0069 µM.

On to `O=C(NCCCCC1CCN(S(=O)(=O)c2cc(F)ccc2F)CC1)c1cc2cnccc2[nH]1` [N-(4-{1-[(2,5-difluorobenzene)sulfonyl]piperidin-4-yl}butyl)-1H-pyrrolo[3,2-c]pyridine-2-carboxamide], for which the IC50 in assay [1] (2.5 mM ATP) stood at 0.0111 µM; in the assay on A2780 cells (Homo sapiens) it was 0.0058 µM.

As for `O=C(NCCCCC1CCN(C(=O)c2cccnc2)CC1)c1cc2ccncc2s1` [N-(4-{1-[(pyridin-3-yl)carbonyl]piperidin-4-yl}butyl)thieno[2,3-c]pyridine-2-carboxamide], the IC50 turned out to be 0.0111 µM in assay [1] (2.5 mM ATP) and 0.0274 µM with A2780 cells (Homo sapiens).

For `O=C(NCCCCC1CCN(C(=O)c2ccc(F)c(F)c2)CC1)c1ccc2nccn2c1` [N-(4-{1-[(3,4-difluorophenyl)carbonyl]piperidin-4-yl}butyl)imidazo[1,2-a]pyridine-6-carboxamide], the IC50 came to 0.019 µM in assay [1] (2.5 mM ATP) and 0.0662 µM with A2780 cells (Homo sapiens).

As for `Cn1c(C(=O)N2CCC(CCCCNC(=O)c3cc4cnccc4[nH]3)CC2)cc2ccccc21` [N-(4-{1-[(1-methyl-1H-indol-2-yl)carbonyl]piperidin-4-yl}butyl)-1H-pyrrolo[3,2-c]pyridine-2-carboxamide], the values for the IC50 (in assay [1] (2.5 mM ATP); in the assay with A2780 cells (Homo sapiens)) were 0.134 µM and 0.0238 µM, respectively.

Take `O=C(NCCCCC1CCN(C(=O)C2CCCCC2)CC1)c1cc2ccncc2s1` [N-[4-(1-cyclohexanecarbonylpiperidin-4-yl)butyl]thieno[2,3-c]pyridine-2-carboxamide]: the IC50 stood at 0.0779 µM in assay [1] (2.5 mM ATP) and 0.0727 µM in the assay with A2780 cells (Homo sapiens).

Regarding `O=C(NCCCCC1CCN(C(=O)c2ccc(F)cn2)CC1)c1cc2ccncc2s1` [N-(4-{1-[(5-fluoropyridin-2-yl)carbonyl]piperidin-4-yl}butyl)thieno[2,3-c]pyridine-2-carboxamide], the IC50 in assay [1] (2.5 mM ATP) is 0.0265 µM; in the assay with A2780 cells (Homo sapiens), 0.1 to 1 µM.

Regarding `O=C(NCCCCC1CCN(C(=O)c2cccc(Cl)c2Cl)CC1)c1cc2cnccc2[nH]1` [N-(4-{1-[(2,3-dichlorophenyl)carbonyl]piperidin-4-yl}butyl)-1H-pyrrolo[3,2-c]pyridine-2-carboxamide], the IC50 in assay [1] (2.5 mM ATP) was found to be 0.0312 µM; in the assay with A2780 cells (Homo sapiens), 0.0032 µM.

Take `CCOc1cccc(C(=O)N2CCC(CCCCNC(=O)c3ccc4nccn4c3)CC2)c1` [N-(4-{1-[(3-ethoxyphenyl)carbonyl]piperidin-4-yl}butyl)imidazo[1,2-a]pyridine-6-carboxamide]: the IC50 worked out at 0.0102 µM in assay [1] (2.5 mM ATP) and 0.0132 µM in the assay with A2780 cells (Homo sapiens).

As to `Cc1ccc(C(=O)N2CCC(CCCCNC(=O)c3ccc4nccn4c3)CC2)cn1` [N-(4-{1-[(6-methylpyridin-3-yl)carbonyl]piperidin-4-yl}butyl)imidazo[1,2-a]pyridine-6-carboxamide], the IC50 was 0.0238 µM in assay [1] (2.5 mM ATP) and 0.0736 µM in the assay on A2780 cells (Homo sapiens).

Regarding `CC(C)c1ccc(C(=O)N2CCC(CCCCNC(=O)c3cc4cnccc4[nH]3)CC2)nc1` [N-[4-(1-{[5-(propan-2-yl)pyridin-2-yl]carbonyl}piperidin-4-yl)butyl]-1H-pyrrolo[3,2-c]pyridine-2-carboxamide], the IC50 in assay [1] (2.5 mM ATP) was found to be 0.163 µM; with A2780 cells (Homo sapiens), 0.0141 µM.

Turning to `Cc1ncsc1C(=O)N1CCC(CCCCNC(=O)c2cc3ccncc3s2)CC1` [N-(4-{1-[(4-methyl-1,3-thiazol-5-yl)carbonyl]piperidin-4-yl}butyl)thieno[2,3-c]pyridine-2-carboxamide], the results for the IC50 (in assay [1] (2.5 mM ATP); in the assay on A2780 cells (Homo sapiens)) were 0.0053 µM and 0.0008 µM, respectively.

As to `COc1cc(Cl)ccc1C(=O)N1CCC(CCCCNC(=O)c2cc3ccncc3s2)CC1` [N-(4-{1-[(4-chloro-2-methoxyphenyl)carbonyl]piperidin-4-yl}butyl)thieno[2,3-c]pyridine-2-carboxamide], the IC50 in assay [1] (2.5 mM ATP) came to 0.0155 µM; in the assay on A2780 cells (Homo sapiens) it was 0.013 µM.

Take `O=C(NCCCCC1CCN(S(=O)(=O)c2ccc(C(F)(F)F)nc2)CC1)c1cc2cnccc2[nH]1` [N-(4-{1-[6-(trifluoromethyl)pyridine-3-sulfonyl]piperidin-4-yl}butyl)-1H-pyrrolo[3,2-c]pyridine-2-carboxamide]: the IC50 in assay [1] (2.5 mM ATP) was found to be 0.0815 µM; in the assay on A2780 cells (Homo sapiens) it was 0.0298 µM.

As to `O=C(NCCC1CCN(S(=O)(=O)c2ccccc2)CC1)c1cc2cnccc2[nH]1` [N-{2-[1-(benzenesulfonyl)piperidin-4-yl]ethyl}-1H-pyrrolo[3,2-c]pyridine-2-carboxamide], the figures for the IC50 (in assay [1] (2.5 mM ATP); with A2780 cells (Homo sapiens)) were 0.0509 µM and 1.03 µM, respectively.

As for `O=C(NCCCCC1CCN(C(=O)c2ccc3[nH]ccc3c2)CC1)c1ccc2nccn2c1` [N-(4-{1-[(1H-indol-5-yl)carbonyl]piperidin-4-yl}butyl)imidazo[1,2-a]pyridine-6-carboxamide], the IC50 in assay [1] (2.5 mM ATP) is 0.0195 µM; in the assay on A2780 cells (Homo sapiens), 0.0185 µM.

The values above are taken from patent US9555039B2, “Piperidine derivatives and compositions for the inhibition of nicotinamide phosphoribosyltransferase (NAMPT)” (Forma TM, LLC., priority 2011, dated 2017).
